Source: article PMC10778626, “Efficacy of Novel Quaternary Ammonium and Phosphonium Salts Differing in Cation Type and Alkyl Chain Length against Antibiotic-Resistant Staphylococcus aureus” (International Journal of Molecular Sciences, 2023)

Assays:
HepG2 cells = experiment: Cytotoxicity by neutral red (NR) uptake; type: cell-based, human; settings: for NR uptake (lysosomal activity), % of control: HepG2, 24 h; for safety profile (MIC correlated with in vitro human cellular data): concentrations equal to or below 2 µg/mL
Experimental: The evaluation of the cytotoxicity effects of QHSs was performed using hepatocellular carcinoma (HepG2) cells. […] The cells used for all experiments were taken between the 9th and 13th passages, to avoid phenotypic changes.
The cytotoxicity profile of the compounds under study was evaluated in HepG2 cells (2.5 × 10^5 cells/mL) seeded in 96-well plates. […] Control experiments were performed for viability endpoints by adding the vehicle (medium with 0.1% DMSO) instead of the compound solution.
In the NR uptake assay, following a 24 h incubation period with the test compounds, the cell culture medium was aspirated, and fresh medium containing 150 µL of the dye (at a concentration of […]) was added to the cells. […] After incubation, the cell culture medium was discarded, and a mixture of absolute ethanol and distilled water (1:1) containing 5% acetic acid was added to extract the dye accumulated within the lysosomes of viable cells. The absorbance at 540 nm was measured using a microplate reader (Synergy HTX Multi-Mode Reader—BioTek, Winooski, VT, USA).
For all assays, results are expressed as a percentage of the control (nontreated cells), taken as 100%.

S. aureus CECT 976 = experiment: Quantitative suspension test, dose-response against planktonic bacteria; type: cell-based, Staphylococcus aureus; settings: 30 min exposure; for concentration inducing reductions in S. aureus log CFU/mL > 5 / MBC: S. aureus CECT 976; for MBC: Staphylococcus aureus, CECT976, 0.5 h, 37 °C, distilled water
Experimental: A quantitative suspension test to explore the dose–response relationships of QHSs by evaluating bactericidal activity was performed. For this method, overnight grown cultures were centrifuged (VWR Mega Star 600R) at 3772× g for 10 min and washed twice with phosphate-buffered saline (PBS; 1.44 g/L of […]—Labkem, Barcelona, Spain; 8 g/L of sodium chloride, 0.2 g/L of potassium chloride, and 0.24 g/L of potassium dihydrogen phosphate—VWR, Leuven, Belgium) at pH 7.4. The collected cells were resuspended in PBS and adjusted to an optical density (OD) of 0.132 ± 0.02 (λ = 600 nm). Afterwards, 100 µL of this cell suspension was aseptically transferred to 800 µL of DW and allowed to stand for 2 min. To this mixture, 100 µL of each QHS solution diluted in DMSO at the desired concentration was added. The dose–response evaluation took place for 30 min at 37 °C. In the case of the negative control (untreated cells), the QHS solution was replaced by an equal volume of DMSO or DW. At the end of the contact time, QHS neutralization was performed through the dilution-neutralization method using a universal neutralizer (1 g/L L-histidine (Merck—Tokyo, Japan), 3 g/L lecithin (Alfa Aesar—Karlsruhe, Germany), 5 g/L sodium thiosulphate (Labkem—Barcelona, Spain), 30 g/L saponin (VWR Chemicals—Leuven, Belgium), and 30 g/L polysorbate 80 (VWR Chemicals—Le Havre, France) in 0.0025 M phosphate buffer). For neutralization, the test blend (100 µL) was added to 800 µL sterile aqueous neutralizing solution and 100 µL of DW. The mixture was gently agitated and allowed to stand for 10 min, after which serial dilutions (up to 10^−5) in sterile saline solution (0.85% w/v NaCl) were prepared. Then, 10 µL of each serial dilution was plated into Petri dishes containing PCA by the drop-plating method. The plates were allowed to set, then inverted and placed in an incubator at 37 °C for 24 h. The surviving cells on the QHS neutralized samples were determined by CFU counting on each plate, ensuring the counting of dilution plates that gave between 10 and 100 CFUs. The antibacterial activity was evaluated by quantification of logarithmic reduction (log CFU/mL), according to Equation (2). log CFU/mL reduction = log (X) − log (X0), (2) where X0 and X are the counts of CFU/mL before (untreated control cells) and after quaternary salt exposure, respectively.
The QHS concentrations chosen for conducting the dose–response tests comprise of the MBC, which causes the complete reduction of planktonic cells, as well as lower concentrations. Specifically, compound 1e was evaluated at concentrations of 0.25, 0.5, 0.75, 1, 2, 4, 8, and 16 µg/mL, compound 7e at concentrations of 1, 2, 3.2, 3.5, 4, 8, and 16 µg/mL, compound 5e at concentrations of 0.5, 1, 1.3, 1.6, 2, 4, and 8 µg/mL, and compound 3e at concentrations of 0.5, 0.75, 1, 1.3, 1.6, 2, 4, and 8 µg/mL. In the case of compounds 2e, 6e, and 4e, concentrations tested were 0.5, 1, 1.6, 2, 4, and 8 µg/mL. All tests were performed in duplicate, and with a minimum of three independent repeats.
The Chick–Watson mathematical model, provided in Equation (3), is considered an adequate approach to validate the kinetics of dose–response data. log X/X0 = − Kdis C^n t (3) where X0 and X are the counts of CFU/mL before and after quaternary salt exposure, respectively; Kdis is a killing rate coefficient ((mL.µg^−1)^n.min^−1); C is the quaternary salt concentration (µg.mL^−1); n is the concentration exponent and t is the exposure time (min). The concentration dependence of killing (n) was determined using a toolbox for linear regression in GraphPad Prism (version 8.4.0, GraphPad Software, La Jolla, CA, USA). The quality of the model was evaluated through the regression coefficient (R^2).

SMILES | NR uptake (lysosomal activity), % of control (HepG2 cells; 1 µg/mL) | NR uptake (lysosomal activity), % of control (HepG2 cells; 2 µg/mL) | NR uptake (lysosomal activity), % of control (HepG2 cells; 16 µg/mL) | NR uptake (lysosomal activity), % of control (HepG2 cells; 32 µg/mL) | concentration inducing reductions in S. aureus log CFU/mL > 5 (S. aureus CECT 976) [μg/mL] | MBC (S. aureus CECT 976) [µg/mL] | safety profile (MIC correlated with in vitro human cellular data) (HepG2 cells) | maximum log CFU/mL reduction (S. aureus CECT 976; at 1.3 μg/mL) [log CFU/mL] | maximum log CFU/mL reduction (S. aureus CECT 976; at 4 μg/mL) [log CFU/mL]
CCCCCCCCCCCCCC[P+](c1ccccc1)(c1ccccc1)c1ccccc1 [Compound 1e, Triphenyl(tetradecyl)phosphonium bromide] | 53.86 ± 4.854% (****) | 72.84 ± 7.906% (****) | 12.29 ± 3.775% (****) | 13.78 ± 2.666% (****) | 0.7 | 1 |  |  | 
CCCCCCCCCCCCCC[n+]1ccn(C)c1.[Br-] [Compound 2e, 1-Methyl-3-tetradecyl-1H-imidazol-3-ium bromide] |  | 86.71 ± 4.103% (****) | 12.85 ± 2.005% (****) | 13.64 ± 2.776% (****) | 2.8 |  | favourable safety profile |  | 
CCCCCCCCCCCCCC[n+]1ccc2ccccc2c1.[Br-] [Compound 3e, 2-Tetradecylisoquinolin-2-ium bromide] |  | 79.86 ± 9.893% (****) | 12.68 ± 2.385% (****) | 12.77 ± 1.368% (****) | 1.2 | 1.3 |  | 6.0 | 
CCCCCCCCCCCCCC[n+]1ccc(C)cc1.[Br-] [Compound 4e, 4-Methyl-1-tetradecylpyridin-1-ium bromide] |  |  | 14.45 ± 2.437% (****) | 21.52 ± 19.06% (****) | 3.5 |  | favourable safety profile |  | 5.9
CCCCCCCCCCCCCC[n+]1cccc2ccccc21.[Br-] [Compound 5e, 1-Tetradecylquinolin-1-ium bromide] |  | 88.20 ± 3.101% (****) | 12.06 ± 2.988% (****) | 14.38 ± 4.045% (****) | 1.2 | 1.3 | favourable safety profile | 6.0 | 
CCCCCCCCCCCCCC[n+]1ccccc1.[Br-] [Compound 6e, 1-Tetradecylpyridin-1-ium bromide] |  |  | 10.46 ± 3.129% (****) | 12.93 ± 3.760% (****) | 3.2 |  |  |  | 5.9
